According to patent US20240034987A1, “SUPPLEMENTED SERUM-FREE MEDIA FOR CULTURED MEAT PRODUCTION” (Trustees of Tufts College, priority 2020, published 2024):
“Also recorded” adds a separate entry of the source.

Tested on: bovine satellite cells (BSCs)
Assay: Short-term growth analysis (3 and 4 days, dsDNA quantitation, brightfield imaging)
Assay type: cell-based
Conditions: for BSC proliferation compared to B8 media alone: supplement in B8, range of concentrations, growth over four days; for FGF-2 concentration to which medium could be lowered without significantly affecting growth: vs 40 ng/mL control
Method: Homemade B8 medium was prepared using store-bought components and a previously described formulation and method of preparation. See, Kuo, H. H. et al. Negligible-Cost and Weekend-Free Chemically Defined Human iPSC Culture. Stem Cell Reports 14, 256-270. Table 1 includes the formulation. Additionally, HiDef-B8 medium aliquots were generously provided by Defined Bioscience (Defined Bioscience #LSS-201, San Diego, CA, USA) and added DMEM/F12 with 1% antibiotic/antimycotic. Short term BSC growth (3 and 4 days) was analyzed for mixtures of serum-containing and serum-free media, as well as for pure B8 media with reduced growth factor concentrations and/or with the addition of various media supplements (Table 2). Briefly, BSCs were thawed (passage number <2) and plated in BSC-GM on 96-well tissue-culture plastic plates for each timepoint at a density of 2,500 cells/cm^2 with 0.25 ug/cm^2 iMatrix recombinant laminin-511. After 24 hours, BSC-GM was removed, cells were washed 1× with DPBS, and new media (e.g., B8+/−supplementation) was added. A list of supplements and concentrations can be found in Table 2. Media was changed on day 3, and on days 3 and 4 cells were imaged, media was aspirated from appropriate plates, and plates were frozen at −80° C. Once all timepoints were frozen, cell number was analyzed using a FluoReporter dsDNA quantitation kit (ThermoFisher #F2962) according to the recommended protocol and with fluorescence readings performed on a Synergy H1 microplate reader (BioTek Instruments, Winooski, VT, USA) using excitation and emission filters centered at 360 and 490 nm, respectively. Cell number at 3 and 4 days was analyzed relative to pure B8 or HiDef media.

| Molecule | BSC proliferation compared to B8 media alone | further results |
| --- | --- | --- |
| COc1cc(/C=C/C(=O)CC(=O)/C=C/c2ccc(O)c(OC)c2)ccc1O [curcumin, reference compound] | significantly improved | – |
| NCCO [ethanolamine, reference compound] | inconsequential | – |
| CCCCC/C=C\C/C=C\CCCCCCCC(=O)O [linoleic acid, reference compound] | significantly improved | – |
| CCCCCCCC/C=C\CCCCCCCC(=O)O [oleic acid, reference compound] | significantly improved | growth vs B8 control on day 4 (tested alone in B8, day 4): no significant difference |
| FGF-2: fibroblast growth factor, component of B8 and Beefy-9, baseline 40 ng/mL | – | effect of complete removal of FGF-2 on cell growth and morphology (0 ng/mL FGF-2 in the media): significantly affects cell morphology; also recorded: significantly affected; effect of FGF-2 reduction on cell morphology (Beefy-9 with 5 ng/mL FGF-2, three days): did not affect morphology; FGF-2 concentration to which medium could be lowered without significantly affecting growth (in B8, four days): 5 ng/mL; FGF-2 concentration to which medium could be lowered without significantly affecting growth (in Beefy-9, four days): 1.25 ng/mL |
| IL-6: interleukin-6, media supplement (BioRad PBP021) | significantly improved | – |
| hepatocyte growth factor: hepatocyte growth factor, media supplement tested in B8 | inconsequential | – |
